Results taken from article PMC9944328 (Nature Communications, 2023).
Where two headings read alike, the source gives them in different places.

System: SSTR2 mutants
Assay: SSTRs Gi-mediated cAMP inhibition, GloSensor, HEK293, 5 μM forskolin, 15 min room temperature (SSTR2 mutants)
Assay type: cell-based, human
Design: Best-fit Bottom, cAMP inhibition / Best-fit Top, cAMP inhibition / Span, cAMP inhibition / Bottom (best-fit value) / Top (best-fit value) / Span (best-fit value) / Span (best-fit) / Bottom (best-fit) / Top (best-fit) / Best-fit Bottom / Best-fit Top / Best-fit Span / Top / Span: scale not given here
Experimental: The levels of the intracellular 3′, 5′-cyclic AMP (cAMP) were measured by the GloSensor cAMP assay (Promega) as described in the previous studies[28],[41] which has been widely used. The human full-length SSTRs and mutants were cloned into the pcDNA3.1+ vector with a HA signal sequence followed by a Flag tag at the N-terminus. HEK293 cells (ATCC, CRL-1573) were seeded into 6-well microplates at a density of 1.0 × 10^6 cells/well and cultured for 24 h at 37 °C with 5% CO2. Cells were then co-transfected with SSTR wild-type or mutants and GloSensor plasmids. After 24 h of transfection, the cells were dissociated with TrypLE™ Express Enzyme (1X) (Thermo Fisher Scientific) and collected by centrifugation at 500 × g for 5 min. Then the collected cells were suspended in Hank’s balanced salt solution [HBSS (Thermo Fisher Scientific)] supplemented with […] (YEASEN), and then the suspension cells were seeded into 96-well plates with 90 μl/well. After incubating at room temperature for 40 min, 5 μM forskolin and ligands diluted in HBSS were added to each well and the plates were incubated at room temperature for 15 min. […] were measured using the Synergy H1 microplate reader (BioTek) and the data presented are means of at least three independent experiments.

C[C@@H](O)[C@@H]1NC(=O)[C@H](CCCCN)NC(=O)[C@@H](Cc2c[nH]c3ccccc23)NC(=O)[C@H](Cc2ccccc2)NC(=O)[C@@H](NC(=O)[C@H](N)Cc2ccccc2)CSSC[C@@H](C(=O)N[C@H](CO)[C@@H](C)O)NC1=O [octreotide]
Best-fit Bottom (D295A-1): -10.23
Best-fit Span (D295A-1): 99.42
Best-fit Top (D295A-1): 89.19
LogEC50 (D295A-1): -8.381
EC50 (D295A-1, read-out: EC50): 4.16 nM
Best-fit Bottom (D295A-2): 1.886
Best-fit Span (D295A-2): 96.17
Best-fit Top (D295A-2): 98.06
LogEC50 (D295A-2): -8.514
EC50 (D295A-2, read-out: EC50): 3.06 nM
Best-fit Span (D295A-3): 116.5
Best-fit Top (D295A-3): 121.2
LogEC50 (D295A-3): -8.224
EC50 (D295A-3, read-out: EC50): 5.97 nM
Span (best-fit) (F208A-1): 78.86
Span (best-fit) (F208A-2): 58.27
Bottom (best-fit) (F265A-1): 0.9849
LogEC50 (best-fit) (F265A-1): -7.854
Span (best-fit) (F265A-1): 101.1
Top (best-fit) (F265A-1): 102.1
EC50 (F265A-1, read-out: EC50 (best-fit)): 14 nM
Bottom (best-fit) (F265A-2): 21.57
LogEC50 (best-fit) (F265A-2): -8.682
Span (best-fit) (F265A-2): 69.47
Top (best-fit) (F265A-2): 91.04
EC50 (F265A-2, read-out: EC50 (best-fit)): 2.08 nM
Bottom (best-fit) (F265A-3): 0.9849
LogEC50 (best-fit) (F265A-3): -7.854
Span (best-fit) (F265A-3): 101.1
Top (best-fit) (F265A-3): 102.1
Bottom (best-fit) (F272A-1): 2.117
LogEC50 (best-fit) (F272A-1): -8.522
Span (best-fit) (F272A-1): 53.6
Top (best-fit) (F272A-1): 55.72
EC50 (F272A-1, read-out: EC50 (best-fit)): 3 nM
Bottom (best-fit) (F272A-2): 11.48
LogEC50 (best-fit) (F272A-2): -6.317
Span (best-fit) (F272A-2): 89.48
Top (best-fit) (F272A-2): 101
EC50 (F272A-2, read-out: EC50 (best-fit)): 482 nM
Bottom (best-fit) (F272A-3): 14.59
LogEC50 (best-fit) (F272A-3): -6.317
Span (best-fit) (F272A-3): 113.7
Top (best-fit) (F272A-3): 128.3
Best-fit Bottom (F294A-1): 3.53
Best-fit Span (F294A-1): 87.88
Best-fit Top (F294A-1): 91.41
LogEC50 (F294A-1): -6.677
EC50 (F294A-1, read-out: EC50): 211 nM
Best-fit Bottom (F294A-2): 6.308
Best-fit Span (F294A-2): 82.91
Best-fit Top (F294A-2): 89.22
LogEC50 (F294A-2): -6.828
EC50 (F294A-2, read-out: EC50): 149 nM
Best-fit Bottom (F294A-3): 4.16
Best-fit Span (F294A-3): 103.6
Best-fit Top (F294A-3): 107.7
LogEC50 (F294A-3): -6.677
Emax (Gi signaling, I130A, earlier manuscript version quoted by reviewer, superseded): 91%
Emax (Gi signaling, Q102A, earlier manuscript version quoted by reviewer, superseded): 109%
Emax (Gi signaling, SSTR2 D122(3.32)A, detected at 10 μM, n=3): 12.04±1.83 %WT
Emax (Gi signaling, SSTR2 D295(7.36)A, n=3): 102.80±9.54 %WT
EC50 (Gi signaling, SSTR2 D295(7.36)A, n=3, read-out: EC50): 4.4 ± 8.48 nM
Emax (Gi signaling, SSTR2 F127(3.37)A, n=3): 108.70±0.91 %WT
EC50 (Gi signaling, SSTR2 F127(3.37)A, n=3, read-out: EC50): 1.93 nM
Emax (Gi signaling, SSTR2 F208(5.38)A, n=3): 96.46±2.20 %WT
EC50 (Gi signaling, SSTR2 F208(5.38)A, n=3, read-out: EC50): 6.42 ± 2.37 nM
Emax (Gi signaling, SSTR2 F265(6.44)A, n=3): 99.81±4.55 %WT
EC50 (Gi signaling, SSTR2 F265(6.44)A, n=3, read-out: EC50): 12.3 ± 5.46 nM
Emax (Gi signaling, SSTR2 F272A, n=3): 95.01±21.17 %WT
EC50 (Gi signaling, SSTR2 F272A, n=3, read-out: EC50): 322.3 ± 1.6 nM
Emax (Gi signaling, SSTR2 F294(7.35)A, n=3): 96.11±5.83 %WT
EC50 (Gi signaling, SSTR2 F294(7.35)A, n=3, read-out: EC50): 190 ± 2.07 nM
Emax (Gi signaling, SSTR2 I130(3.40)A, n=3): 101.10±5.08 %WT
EC50 (Gi signaling, SSTR2 I130(3.40)A, n=3, read-out: EC50): 11.6 ± 4.99 nM
Emax (Gi signaling, SSTR2 I195(45.52)A, n=3): 100.40±3.58 %WT
EC50 (Gi signaling, SSTR2 I195(45.52)A, n=3, read-out: EC50): 6.58 ± 1.1 nM
Emax (Gi signaling, SSTR2 I284ECL3A, n=3): 97.53±14.28 %WT
EC50 (Gi signaling, SSTR2 I284ECL3A, n=3, read-out: EC50): 1.91 ± 4.66 nM
Emax (Gi signaling, SSTR2 K291(7.32)A, n=3): 89.41±10.26 %WT
EC50 (Gi signaling, SSTR2 K291(7.32)A, n=3, read-out: EC50): 5.46 ± 1.06 nM
Emax (Gi signaling, SSTR2 L99(2.60)A, n=3): 92.36±6.12 %WT
EC50 (Gi signaling, SSTR2 L99(2.60)A, n=3, read-out: EC50): 1.25 nM
Emax (Gi signaling, SSTR2 L290(7.31)A, n=3): 103.50±7.16 %WT
Emax (Gi signaling, SSTR2 N276(6.55)A, n=3): 107.20±5.70 %WT
EC50 (Gi signaling, SSTR2 N276(6.55)A, n=3, read-out: EC50): 35.1 ± 8.45 nM
Emax (Gi signaling, SSTR2 P220(5.50)A, n=3): 95.86±14.17 %WT
EC50 (Gi signaling, SSTR2 P220(5.50)A, n=3, read-out: EC50): 3.37 ± 1.32 nM
Emax (Gi signaling, SSTR2 P286ECL3A, n=3): 102.40±5.34 %WT
EC50 (Gi signaling, SSTR2 P286ECL3A, n=3, read-out: EC50): 0.62 ± 1.18 nM
Emax (Gi signaling, SSTR2 Q102(2.63)A, n=3): 71.48±1.31 %WT
EC50 (Gi signaling, SSTR2 Q102(2.63)A, n=3, read-out: EC50): 66.8 ± 2.72 nM
Emax (Gi signaling, SSTR2 Q126(3.36)A, detected at 10 μM, n=3): 21.88±1.91 %WT
Emax (Gi signaling, SSTR2 S279(6.58)A, n=3): 101.70±5.61 %WT
EC50 (Gi signaling, SSTR2 S279(6.58)A, n=3, read-out: EC50): 1.17 ± 1.01 nM
Emax (Gi signaling, SSTR2 S285ECL3A, n=3): 87.52±6.00 %WT
EC50 (Gi signaling, SSTR2 S285ECL3A, n=3, read-out: EC50): 0.69 ± 1.18 nM
Emax (Gi signaling, SSTR2 T194(45.51)A, n=3): 91.51±3.38 %WT
EC50 (Gi signaling, SSTR2 T194(45.51)A, n=3, read-out: EC50): 48.5 ± 2.29 nM
Emax (Gi signaling, SSTR2 T287ECL3A, n=3): 98.50±5.26 %WT
EC50 (Gi signaling, SSTR2 T287ECL3A, n=3, read-out: EC50): 0.6 nM
Emax (Gi signaling, SSTR2 V103(2.64)A, n=3): 90.80±3.48 %WT
EC50 (Gi signaling, SSTR2 V103(2.64)A, n=3, read-out: EC50): 7.66 ± 2.51 nM
Emax (Gi signaling, SSTR2 W188ECL3A, n=3): 102.40±5.12 %WT
EC50 (Gi signaling, SSTR2 W188ECL3A, n=3, read-out: EC50): 0.32 nM
Emax (Gi signaling, SSTR2 W269(6.48)A, n=3): 99.58±2.56 %WT
EC50 (Gi signaling, SSTR2 W269(6.48)A, n=3, read-out: EC50): 0.89 ± 2.24 nM
Emax (Gi signaling, SSTR2 Y50(1.39)A, n=3): 104.70±0.48 %WT
EC50 (Gi signaling, SSTR2 Y50(1.39)A, n=3, read-out: EC50): 0.46 nM
Emax (Gi signaling, SSTR2 Y205(5.35)A, n=3): 112.90±25.77 %WT
EC50 (Gi signaling, SSTR2 Y205(5.35)A, n=3, read-out: EC50): 0.92 nM
Emax (Gi signaling, SSTR2 Y302(7.43)A, n=3): 79.09±10.74 %WT
EC50 (Gi signaling, SSTR2 Y302(7.43)A, n=3, read-out: EC50): 79 ± 2.7 nM
Bottom (best-fit value) (I284A-1, run 1): 8.872
LogEC50 (best-fit value) (I284A-1, run 1): -8.868
Span (best-fit value) (I284A-1, run 1): 107.4
